# Assay results reported in a melting point compilation (Tetko et al.; mined from patent text by program, amines drawn as free bases though some values may be those of a salt).
row,SMILES,melting point [°C]
1,Cc1nnc2n1-c1ccc([N+](=O)[O-])cc1C(c1ccccc1)=NC2,233 to 234
2,Cc1ccc(C2SCC(=O)CS2)cc1,112 to 113
3,CCN(CC)CCSc1nc2ccccc2c(=O)n1-c1ccccc1,84.8 to 86.8
4,O=C(CNC1=Nc2ccc(Cl)cc2C(c2ccccc2Cl)=NC1)CN1C(=O)c2ccccc2C1=O,180 to 190
5,CCOc1ncc(I)cc1C(=O)OC,67 to 69
6,CCCCOC(=O)c1ccc(NC(=NC(=O)OCC)SC)cc1,67 to 68
7,CC(=O)N1CCC(c2nc3cccc4c3n2CCC4)CC1,139 to 140
8,"CC(OC(=O)C12CC3CC(CC(C3)C1)C2)c1ccncc1 (single isomer, unassigned; (-))",164 to 166
9,CC(C)[C@]1(CCc2ccsc2)CC(O)=CC(=O)O1,117 to 123
10,COC(=O)[C@H](Cc1ccc([N+](=O)[O-])cc1)NC(=S)C1(CCCCS(C)(=O)=O)CCC1,150 to 152
11,CCCNS(=O)(=O)Nc1ncccc1C(=O)OC,208 to 210
12,Cc1ccc(OC(C(=O)OC2CC(O)C=C3C=CC(C)C(CCC4CC(O)CC(=O)O4)C32)c2ccccc2)cc1 (mixture of isomers),130 to 133
13,CC(O)Cn1nc(Br)c([N+](=O)[O-])c1NCc1ccccc1 (configuration not stated),81.3
14,Cc1ncc([N+](=O)[O-])n1CCN1C(=O)CCC1=O,147 to 148
15,COc1ccc2cccc(Cc3ccccc3)c2c1O,67 to 71
16,CCOC(=O)Cc1ccc(S(=O)(=O)C2CC2)cc1,102 to 104
17,COC(=O)/C=C(C)/C=C/C(F)=C(C)/C=C/C1(C)C=C(C)OC1C (configuration not stated),122 to 126
18,CC(C)(C)c1ccc(C(N)=CC#N)cc1,74 to 75
19,c1ccc(C(N=C2CCCC2)c2ccccc2)cc1,96 to 100
20,Oc1nc(C2CC2)ncc1Br,200
21,CC(=O)O[C@H]1C[C@@H](n2cc(C)c(=O)[nH]c2=O)[C@H](O)[C@@H]1O (racemic),58 to 61
22,O=S(=O)(O)c1cccc(Cl)n1,274 to 275
23,COCc1cc([N+](=O)[O-])c(Cl)cc1C(=O)Cl,63 to 65
24,O=[N+]([O-])c1ccccc1C1=NCC(=S)Nc2sccc21,207 to 209

row,SMILES,melting point [°C]
1,CCN=C1SC(=NOC(=O)N(C)SC(Cl)(Cl)Cl)C(C)(C)S1,69 to 71
2,CCCCn1ccc(N2CCC(c3ccccc3)CC2)c(Cl)c1=O,149
3,CC(=O)c1cc(C#N)c(=O)n(C=CN(C)C)c1,267 to 270
4,CC(C)(O)C#Cc1ccc(F)cc1,124
5,COc1cc2nc(S)[nH]c2cc1OC,278 to 280
6,CC#CCOc1ccc(SC(C(=O)NO)c2ccccc2)cc1 (configuration not stated),151
7,O=C(NC(Cc1ccccc1)C(=O)O)OCc1ccc(CCOc2ccccc2)cc1 (configuration not stated),150 to 152
8,O=C(Cc1ccccc1)N1CCN(Cc2n[nH]c3cc(F)ccc23)CC1,173 to 174
9,Cc1cc(O)c(Cc2ccc(C(C)C)cc2)c(C)c1NC(=O)CC(C)(C)C,202 to 203
10,COC(=O)c1ccc(C(=O)NC(C)C)cc1S(=O)(=O)NC(C)(C)C,159 to 160
11,COC(=O)C(C)(C)Cc1c(C(=O)c2ccc(Cl)cc2)c2ccc(OC(=O)c3ccc(Cl)cc3)cc2n1C,138
12,COc1ccc2c(c1)CCC1=C2CCC(=O)C1,75 to 77
13,FC(F)Sc1nnc(-c2ccc(Cl)cc2)s1,74 to 76
14,CC(C)(C)OC(=O)C(Nc1ccccc1)c1cccc(Cl)c1 (racemic),96
15,CCCCC(CC)COc1ccc2c(Br)c3cc(OCC(CC)CCCC)ccc3c(Br)c2c1 (configuration not stated),103 to 105
16,O=C(Nc1ccc(Cc2nnn[nH]2)cc1)C(F)(F)C(F)(F)F,183 to 185
17,NC(=S)Nc1ccccc1C1CC1,152 to 154
18,Nc1ccccc1-c1[nH]ncc1[N+](=O)[O-],175 to 176
19,OC(CNCC(O)C1CCc2ccccc2O1)C1CCc2ccccc2O1 (configuration not stated),131
20,CCCCCCCCCCCCCCCCCCOc1cn(C)c(CNCCCO)cc1=O,79 to 82
21,CC(=O)c1cc2c(s1)CCCC2NC(N)=O (configuration not stated),218 to 220
22,c1ccc(Cc2n[nH]c(NCCCOc3cccc(CN4CCCCC4)c3)n2)cc1,143 to 144
23,CCCCN(CC)c1nc(C)nc2c1c(C)cn2-c1c(C)cc(CF)cc1C,163 to 165
24,Cc1nc(-c2cc(C)c(OCCCc3cc(C4CC4)no3)c(C)c2)no1,50.5 to 51

# Further lines, results first:
row,melting point [°C],SMILES
1,242,CC(=O)Nc1nc2c(NC(=O)c3ccc4cc(Br)ccc4c3)cccc2s1
2,216 to 219,NC(Cc1ccccc1)C(=O)NC1CCN(c2nc3c(cc2F)c(=O)c(C(=O)O)cn3C2CC2)C1 (configuration not stated)
3,64 to 67,CC(C)[C@H](NC(=O)OCc1ccccc1)C(=O)OC[C@H]1O[C@@H](n2cc(F)c(=O)[nH]c2=O)[C@H](O)[C@@H]1O
4,74 to 75,Cc1cc(C)c(CO)c(-c2ccc(F)c(C)c2)c1
5,94 to 97,O=C1c2cc(OCc3ccccn3)ccc2CC1Cc1ccccc1 (configuration not stated)
6,70 to 72,CCOC(=O)Cc1nc(-c2ccc(Cl)cc2)oc1Oc1ccc(Cl)cc1
7,88 to 89,CCCOc1ccc(S(=O)(=O)N2CCN(CCOC(=O)C(C)C)CC2)cc1-c1nc2c(CCC)cn(CC)c2c(=O)[nH]1
8,234 to 235,CC(=O)Nc1ccc(S(=O)(=O)O)c(NCC(=O)O)c1
9,260,CCOC(=O)c1cn(C2CC2)c2nc3c(F)c(F)c(F)cc3cc2c1=O
10,124 to 126,CCc1cc(C(C)=O)c(OC)cc1OCc1cccc(C#N)c1
11,271 to 273,O=C(O)c1cn(-c2ccncc2F)c2cc(F)c(F)cc2c1=O
12,85 to 87,CCOC(=O)C=Cc1ccc2c(c1)ncn2-c1cccc(N2CCCCC2)c1
13,223 to 225,COc1ccc(C2NCc3c2[nH]c2ccccc2c3=O)cc1OC (configuration not stated)
14,139 to 141,CCC(C)(C)c1ccc(OCC(=O)Nc2cccc(C(=O)Nc3[nH]n(-c4c(Cl)cc(Cl)cc4Cl)c(=O)c3Br)c2)c(C(C)(C)CC)c1
15,98 to 115,CCOC(=O)c1cc2cccc(OCc3ccccc3)c2cc1O
16,158 to 160,O=C1CCC(N2C(=O)c3cccc(NCCOCc4ccccc4)c3C2=O)C(=O)N1 (configuration not stated)
17,168 to 172,Nc1ncc(C#Cc2ccc(Cl)cc2)c(OC2CCC(=O)CC2)n1
18,156 to 159,O=C(O)c1c[nH]c(Sc2ccc(Cl)c(Cl)c2)c1
19,299,O=c1c(-c2ccc(Cl)cc2)coc2cc(O)c(O)cc12
20,105 to 106,COC(=O)[C@H]1Cc2cc(SC)ccc2C(=O)[C@H](C)S1 (relative stereo)
21,154 to 161,C[C@@H](n1cnc2cc(-c3ccc(C(=N)NCCN)cc3)sc2c1=O)[C@](O)(Cn1cncn1)c1ccc(F)cc1F
22,170,Cc1cccc(NC(=O)NC(C(=O)O)C(C)C)c1 (racemic)
23,39 to 39.5,CNc1cc(F)ccc1C(=O)OC
24,65 to 67,O=C(c1cc(C(F)(F)F)cc(C(F)(F)F)c1)N1CCN(C(=O)CNC2CCN(Cc3ccccc3)CC2)C(c2ccccc2)C1 (racemic)
25,260 to 262,CNC(=O)c1cc(-c2cccc3nc(Nc4cc(OC)c(OC)c(OC)c4)oc23)cs1
26,129,CCNC(=O)c1cc(-c2ccc(OC)cc2)nn(CC2CCCC2)c1=O
27,158,COc1ccc2c(c1)cc(CO)n2C

row,melting point [°C],SMILES
1,134 to 136,Clc1ccc(CCC(Cn2ccnc2)Sc2cccc(Cl)c2Cl)cc1 (configuration not stated)
2,155 to 157,CCCOc1cc(C(=O)O)cc(S(N)(=O)=O)c1-c1ccccc1
3,50 to 52,CSc1c(C)n(C)c2ccccc12
4,170 to 176,CCn1cc(-c2nnnn2C)c(=O)c2ccccc21
5,64 to 66,C=CCc1cnc2c([N+](=O)[O-])cccc2c1Cl
6,112 to 115,Cn1nc(-c2c(Cl)cccc2Cl)nc1Cc1ccc(Cl)cc1
7,163,COC(=O)c1cnc(S)n1C1CCSc2ccccc21 (configuration not stated)
8,197 to 199,CN1C(O)=C(C(=O)Nc2ccc(Br)cc2)c2ccsc2S1(=O)=O
9,242 to 245,CN(C)c1ccc(-c2cc(=O)c3ccc(O)c(O)c3o2)cc1
10,> 250,COc1cccc(OC)c1CNC(=O)c1ccc2c(c1)C(=NNc1ccc(S(N)(=O)=O)cc1)C(=O)N2
11,87 to 89,CCCCCCc1cc(-c2ccccc2)c(OCC(=O)O)c(-c2ccccc2)c1
12,265 to 267,Cn1ccnc1Sc1ccc(Nc2c(C#N)cnc3cc(N4CCC(N5CCCC5)CC4)c(N)cc23)cc1Cl
13,171 to 173,O=C(O)COc1cc(Cl)c2c(c1)OCC(c1ccccc1)C2=O (configuration not stated)
14,194 to 195,O=C(CO)c1c[nH]c2cc(OCc3ccccc3)ccc12
15,185 to 187,CN(CCc1ccccc1)C(=O)Cn1cc(C=CC(=O)N2CCCC2)c2cc(OCc3ccccc3)ccc21
16,105 to 107,CCC(=O)NCCC1CCc2ccc3nn(C)cc3c21 (configuration not stated)
17,106 to 108,COC(=O)C(=Cc1cc(OC)cc(OC)c1)c1ccc(O)cc1
18,143 to 145,COC(=O)C1=Cc2cc(Br)ccc2NCC1
19,253,Cc1cc(-c2cnn3c(C(F)(F)F)cc(-c4ccc(C(F)(F)F)c(C)c4)nc23)cc(C)n1
20,95,Clc1c(Cl)c(Cl)c2c(nc(Cl)n2COCCOCc2ccccc2)c1Cl
21,208 to 210,O=C1CCCc2c1c1cccc3c1n2CC3
22,240,Nc1c(F)c(N2CCC(n3cncn3)C2)c(F)c2c1c(=O)c(C(=O)O)cn2C1CC1 (configuration not stated)
23,152 to 154,Cc1cncc(COc2cccc(C(N)=O)c2)c1
24,98 to 99,CCOC(Nc1ccccc1)(OCC)c1ccnc(C(=O)c2ccc(Cl)cc2)c1
25,155 to 157,Nc1c(-c2ccccc2)nn2ccccc12
26,144 to 146,CC(C)c1ccc(C2(O)Cc3ccccc3C2=O)c(O)c1 (configuration not stated)
27,152 to 155,CCOC(=O)c1cnc2n(c1=O)-c1ccccc1N(C(C)=O)C2
